Data on twelve molecules can be found in ChEMBL document CHEMBL1201862, “PubChem BioAssay data set” (2004).

Calls of active or inactive are those of the source. Where only a bound is given, the exact number is not on record here.

A short description of assay [1]: inhibitors of firefly luciferase expression or activity, dose response, H4 neuroglioma cells, luminescence (AID 1990). The class given is functional, cell-based.
Assay [2] in a line: Luminescence Cell-Based Dose Response HTS to Identify Inhibitors of 5'UTR Stem-Loop Driven Prion Protein mRNA Translation in H4 Neuroglioblastoma Cells. [Related pubchem assays: 1827 (Project Summary), 1813 (Primary HTS)]. It is filed as functional.
The subject of assay [3] is Escherichia coli. Kind of assay: microbe, parasite or virus in culture.
A short description of assay [4]: inhibitors of SNCA 5'UTR-driven reporter translation, confirmation, H4 neuroglioma cells, luminescence (AID 1988). The class given is functional, cell-based.
In assay [5] the target is T1, Ubiquitin-conjugating enzyme E2 N (Homo sapiens, UniProt P61088).
T1 sequence (P61088 whole entry): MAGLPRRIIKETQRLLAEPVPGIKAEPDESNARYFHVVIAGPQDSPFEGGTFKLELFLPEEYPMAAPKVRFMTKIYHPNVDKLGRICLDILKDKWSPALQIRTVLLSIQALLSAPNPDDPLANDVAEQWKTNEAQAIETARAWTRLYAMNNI
It is filed as functional.

The target of a further assay is T2, Bcl-2-related protein A1 (Mus musculus, UniProt Q07440).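 Further: confirmatory dose–response counterscreen on Bfl-1, used to check hits from a UBC13 polyubiquitin inhibitor campaign.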
T2 sequence (Q07440 whole entry): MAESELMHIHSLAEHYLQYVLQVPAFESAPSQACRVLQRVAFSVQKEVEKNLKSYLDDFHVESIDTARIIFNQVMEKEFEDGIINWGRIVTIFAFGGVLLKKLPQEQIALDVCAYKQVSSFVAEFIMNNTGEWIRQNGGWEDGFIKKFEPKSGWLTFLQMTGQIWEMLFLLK
It is filed as functional.

Assay [6] concerns the target T1, Ubiquitin-conjugating enzyme E2 N. It is filed as functional. The source holds these as a separate data set.
Assay [7] has as its system Escherichia coli. Kind of assay: microbe, parasite or virus in culture. The source holds these as a separate data set.
The target of assay [8] is T3, Endoribonuclease toxin MazF (Escherichia coli K-12, UniProt P0AE70).
T3 sequence (P0AE70 whole entry): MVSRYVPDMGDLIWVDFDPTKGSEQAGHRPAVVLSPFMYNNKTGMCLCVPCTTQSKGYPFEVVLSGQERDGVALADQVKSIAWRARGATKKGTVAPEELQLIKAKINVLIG
Kind of assay: fluorescent RNA oligo signal without MazF, dose response, counter-screen for MazEF activator project, biochemical, fluorescence, single-stranded RNase substrate (AID 588502). The class given is functional. (In general: The purpose of a counterscreen is to sort out artefacts and off-target activity.)

The target of assay [9] is T3, Endoribonuclease toxin MazF. Kind of assay: MazF toxin RNase activators, dose response, biochemical, fluorescence, single-stranded RNA substrate, uHTS hits (AID 588481). It is filed as functional.
Assay [10] in a line: NIH-3T3 fibroblast cytotoxicity, dose response, cytotoxicity control, cell-based, fluorescence, Alamar Blue, secondary assay (AID 2327).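 Further: NIH-3T3 mouse fibroblasts cultured with fluconazole at 8 µg/mL.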 It is filed as functional. A general note: Alamar Blue is a resazurin reagent that responds to reducing activity.
The target in assay [11] is ATP-dependent molecular chaperone HSP82 (Candida albicans (strain WO-1) (Yeast), UniProt C4YTQ8). Kind of assay: loss of DOC-induced GRE-beta-galactosidase reporter signal, dose response, Hsp90 inhibitor project, S. cerevisiae, luminescence (AID 2400).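 Further: beta-galactosidase luminescence from glucocorticoid response element reporter as proxy for Hsp90 function; inhibitor potency where signal loss means Hsp90 inhibition.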 The class given is functional, cell-based.
For assay [12], the target named is T4, Serine/threonine-protein phosphatase (Candida dubliniensis (strain CD36 / CBS 7987 / NCPF 3949 / NRRLY-17841) (Yeast), UniProt B9W6M3).
T4 sequence (B9W6M3 whole entry): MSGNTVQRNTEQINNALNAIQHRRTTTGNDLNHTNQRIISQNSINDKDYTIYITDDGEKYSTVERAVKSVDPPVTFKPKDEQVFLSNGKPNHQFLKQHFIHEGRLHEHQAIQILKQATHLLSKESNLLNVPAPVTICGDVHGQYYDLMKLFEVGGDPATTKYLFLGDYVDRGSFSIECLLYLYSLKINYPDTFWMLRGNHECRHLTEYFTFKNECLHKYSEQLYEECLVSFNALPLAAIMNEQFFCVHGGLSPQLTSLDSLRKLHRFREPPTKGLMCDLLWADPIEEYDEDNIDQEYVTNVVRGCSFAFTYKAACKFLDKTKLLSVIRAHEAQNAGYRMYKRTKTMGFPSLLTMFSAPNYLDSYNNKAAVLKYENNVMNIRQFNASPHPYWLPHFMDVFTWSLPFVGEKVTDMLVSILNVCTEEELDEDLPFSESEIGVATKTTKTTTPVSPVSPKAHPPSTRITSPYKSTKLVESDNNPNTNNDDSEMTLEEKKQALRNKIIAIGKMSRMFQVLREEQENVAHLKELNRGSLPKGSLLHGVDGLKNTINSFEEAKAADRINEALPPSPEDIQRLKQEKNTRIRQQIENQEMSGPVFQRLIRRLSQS
Kind of assay: calcineurin pathway inhibitors in yeast reporter, dose response, S. cerevisiae, CDRE-lacZ, luminescence, secondary (AID 2388).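 Further: yeast reporter cells carrying a calcineurin-responsive lacZ construct stimulated with calcium chloride; luminescent beta-galactosidase reporter signal in whole cells rather than isolated phosphatase activity; potency for inhibition where a drop in reporter signal means calcineurin blockade.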 It is filed as functional, cell-based.

Assay [13] in a line: C. albicans growth with fluconazole, confirmation, fluorescence, retest (AID 2467). It is filed as functional, cell-based.
Assay [14] concerns the target Glyceraldehyde-3-phosphate dehydrogenase (Homo sapiens, UniProt P04406).
Assay [15] concerns the target Alkaline phosphatase, placental type (Homo sapiens, UniProt P05187). Kind of assay: PLAP enzyme inhibitors, confirmation, biochemical, luminescence (AID 1512). The class given is functional.

ATP-dependent molecular chaperone HSP82, sequence (C4YTQ8 whole entry): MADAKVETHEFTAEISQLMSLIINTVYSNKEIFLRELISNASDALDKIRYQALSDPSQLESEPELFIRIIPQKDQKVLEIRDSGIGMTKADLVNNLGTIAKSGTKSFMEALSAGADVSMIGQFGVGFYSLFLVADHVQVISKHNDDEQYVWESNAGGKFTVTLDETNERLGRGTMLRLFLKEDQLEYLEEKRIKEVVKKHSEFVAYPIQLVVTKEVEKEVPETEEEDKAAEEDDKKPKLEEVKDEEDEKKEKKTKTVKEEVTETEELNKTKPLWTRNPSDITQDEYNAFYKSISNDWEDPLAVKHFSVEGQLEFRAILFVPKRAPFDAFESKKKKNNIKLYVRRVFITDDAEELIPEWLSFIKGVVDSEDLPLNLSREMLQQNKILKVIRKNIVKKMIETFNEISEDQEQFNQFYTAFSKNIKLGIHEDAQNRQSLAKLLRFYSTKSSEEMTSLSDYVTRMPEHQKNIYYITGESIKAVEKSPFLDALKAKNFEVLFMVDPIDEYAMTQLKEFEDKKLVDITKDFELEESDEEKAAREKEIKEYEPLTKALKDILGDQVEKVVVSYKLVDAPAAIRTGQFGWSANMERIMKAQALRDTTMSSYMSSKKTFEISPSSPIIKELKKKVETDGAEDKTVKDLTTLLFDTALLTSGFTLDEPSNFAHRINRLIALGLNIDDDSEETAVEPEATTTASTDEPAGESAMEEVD
Alkaline phosphatase, placental type, sequence (P05187 whole entry): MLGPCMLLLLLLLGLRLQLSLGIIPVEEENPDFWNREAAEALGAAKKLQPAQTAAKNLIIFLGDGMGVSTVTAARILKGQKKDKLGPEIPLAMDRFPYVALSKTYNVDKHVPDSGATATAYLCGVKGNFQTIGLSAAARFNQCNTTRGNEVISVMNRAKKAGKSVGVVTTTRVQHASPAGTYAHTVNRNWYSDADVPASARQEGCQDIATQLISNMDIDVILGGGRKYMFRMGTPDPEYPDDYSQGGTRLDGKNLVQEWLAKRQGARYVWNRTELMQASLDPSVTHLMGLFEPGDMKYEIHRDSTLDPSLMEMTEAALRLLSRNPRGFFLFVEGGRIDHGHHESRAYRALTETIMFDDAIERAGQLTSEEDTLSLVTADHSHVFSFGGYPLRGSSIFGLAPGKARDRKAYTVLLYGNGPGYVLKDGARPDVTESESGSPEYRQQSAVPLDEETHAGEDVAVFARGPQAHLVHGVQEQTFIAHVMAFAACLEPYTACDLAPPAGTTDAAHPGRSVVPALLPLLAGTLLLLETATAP
Glyceraldehyde-3-phosphate dehydrogenase, sequence (P04406 whole entry): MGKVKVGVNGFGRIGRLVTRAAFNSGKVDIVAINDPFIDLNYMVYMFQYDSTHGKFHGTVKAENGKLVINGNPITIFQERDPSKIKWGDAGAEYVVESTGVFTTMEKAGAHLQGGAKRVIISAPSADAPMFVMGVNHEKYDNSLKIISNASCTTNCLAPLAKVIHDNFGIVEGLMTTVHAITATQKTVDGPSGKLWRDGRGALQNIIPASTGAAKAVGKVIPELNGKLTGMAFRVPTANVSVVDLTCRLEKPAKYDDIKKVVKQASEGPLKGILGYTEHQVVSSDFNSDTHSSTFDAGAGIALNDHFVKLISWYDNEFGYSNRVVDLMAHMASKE

As a reminder, the EC50 is the concentration needed to bring the measured effect to its halfway point. Usually AC50 stands for the concentration at which the activity in the assay is half-maximal. As to `Cc1ccnc(SCCn2c(N3CC(C)CC(C)C3)nc3c2c(=O)n(C)c(=O)n3C)n1` (stereo not given), the EC50 in [1] is 39.1 µM (active); in assay [2] it was > 120 µM (not active); in assay [4], > 120 µM (not active). Besides, the half-maximal activity concentration (AC50) in the assay on Escherichia coli [3] is 35.1 µM (active).

A word on the IC50: it is the concentration that gives 50% inhibition. On to `O=[N+]([O-])c1ccc2[nH]c(O)c(N=NC(S)=NCC3CCCO3)c2c1` (stereo not given), for which the IC50 in assay [5] was 15.9 µM (active); on Bcl-2-related protein A1 it was > 20 µM (inactive); in assay [6] it was 0.664 µM (active).

With `O=C1CC(c2cc(-c3ccccc3)no2)C1`, in the assay with Escherichia coli [7], the concentration at half-maximal activity (AC50) was 34.5 µM (active).

As to `COc1ccc(S(=O)(=O)N2CCCCCC2)cc1NC(=O)c1c2c(nc3ccccc13)CCN(Cc1ccccc1)C2`, the AC50 with Escherichia coli [7] was 26 µM (active); in the assay on Escherichia coli [3], 52 µM (active).

Take `CC(C)(C)c1cc(NS(=O)(=O)c2ccc3c(c2)OCCO3)on1`: the AC50 with Escherichia coli [3] was 31 µM (active).

Consider `Cc1ccc(S(=O)(=O)n2cc(C=O)c3ccccc32)cc1`, for which the IC50 in [5] is 9.59 µM (active); at Bcl-2-related protein A1, > 20 µM (inactive); in assay [6], 11 µM (active).

In the case of `COC(=O)C1=C(C)N(Cc2ccco2)C(=O)/C1=C\c1ccc(N(C)C)cc1`, the figures for the EC50 in assay [8] and in assay [9] were 37.5 µM (inactive) and 10.7 µM (active), respectively.

Consider `CCc1nnc(NC(=O)CN2CCN(c3nc(-c4ccccc4)cs3)CC2)s1`, for which the EC50 in assay [10] is > 150 µM (inconclusive); in assay [11], > 150 µM (inactive); in assay [12], > 180 µM (inactive); in [13], 1.18 µM (active).

Turning to `CCN=C(S)NNC(=O)c1cc(-c2ccccc2C)nc2ccccc12`, the EC50 was > 160 µM (inactive) in [10], > 160 µM (inactive) in assay [11], > 180 µM (inactive) in assay [12] and 0.931 µM (active) in assay [13].

As for `NC(=O)c1ncn([C@@H]2O[C@H](CNCc3cccn3-c3ccncc3)[C@@H](O)[C@H]2O)n1`, in the assay on Escherichia coli [7], the AC50 was 24 µM (active).

Take `CC1=CC(C)(C)n2c(O)c(/N=N/C(=N)S)c3cccc1c32`: the concentration for half-maximal inhibition (IC50) in [5] is 6.09 µM (active); at Bcl-2-related protein A1, > 20 µM (inactive); in assay [6], 4.79 µM (active).

As for `CCN1CCN(C(=O)c2cc(-c3ccc(Cl)cc3Cl)n[nH]2)CC1`, the values for the IC50 in assay [14] and in assay [15] were > 100 µM (not active) and > 100 µM (inactive), respectively.
